In the OPERA property sets (Mansouri et al. 2018):
Where a SMILES comes first, the peptide text is derived from it.

| Compound | logP |
| --- | --- |
| COCC(Cn1ccnc1[N+](=O)[O-])OC(C)=O (stereo not drawn) | -0.04 |
| Cc1cccc(C)c1NC(=O)CN1CCN(CCCC(c2ccc(F)cc2)c2ccc(F)cc2)CC1 | 5.6 |
| Clc1cc(Cl)c2c(c1)Oc1c(cc(Cl)c(Cl)c1Cl)O2 | 6.53 |
| Cc1c([N+](=O)[O-])ncn1C | -0.11 |
| CCN(CC)C(=O)COC(=O)c1ccccc1O | 1.99 |
| CCCC(=O)OCCOCn1cnc2c(=O)[nH]c(N)nc21 | -0.08 |
| CCCN(C=Nc1ccn(C2CC(O)C(CO)O2)c(=O)n1)CCC (stereo not drawn) | 0.4 |
| C#CCOc1c(Cl)cc(NC=NOc2ccccc2)cc1Cl | 4.4 |
| Nc1nc(NCCO)c(Cl)nc1[N+](=O)[O-] | 0.12 |
| CC(=NOCC(=O)O)c1cc(Oc2ccc(C(F)(F)F)cc2Cl)ccc1[N+](=O)[O-] | 4.3 |
| Cc1[nH]c2cccc3c2c1CC1NCC(C(=O)NC2(C(C)C)OC4(O)C5CCCN5C(=O)C(C(C)C)N4C2=O)C=C31 (stereo not drawn) | 3.15 |
| Cn1ccc(=O)cc1 | -1.22 |
| CCCCC(NC(Cc1ccccc1)C(=O)N1CCC(OCOC)CC1)C(=O)NC(CC1CCCCC1)C(O)CC(C(=O)NCCC[N+]1([O-])CCOCC1)C(C)C (stereo not drawn) | 3.6 |
| CCCCN1C(=O)NC(=O)C(=O)C1=O | 0.81 |
| O=[N+]([O-])c1nc(Br)[nH]c1Br | 2.82 |
| CCCCC(=O)OCCOCn1cnc2c(=O)[nH]c(N)nc21 | 0.37 |
| CC(C)c1cccc(C(C)C)c1N | 3.18 |
| Fc1ccc(SCc2ccccc2CCCN2CCOCC2)cc1 | 3.69 |
| CC1CC2C3CCC4=CC(=O)C=CC4(C)C3(F)C(O)CC2(C)C1(O)C(=O)NCCc1ccccc1 (stereo not drawn) | 3.66 |
| CC1CC2C3CCC4=CC(=O)C=CC4(C)C3(F)C(O)CC2(C)C1(O)C(=O)NCCO (stereo not drawn) | 1.51 |
| CC1CC2C3CCC4=CC(=O)C=CC4(C)C3(F)C(O)CC2(C)C1(O)C(=O)NC(CO)c1ccccc1 (stereo not drawn) | 2.89 |

| Compound | logP |
| --- | --- |
| O=Cc1ccc(O)c2ncccc12 | 1.63 |
| CC1(C)SC2C(NC(=O)c3c(-c4c(F)cccc4Cl)noc3CO)C(=O)N2C1C(=O)O (stereo not drawn) | 2.23 |
| C#CCOc1c(Cl)cc(NC=NOC(C)CC)cc1Cl (stereo not drawn) | 4.2 |
| CC1=C(c2ccccc2)CCN(C)C1 | 3.18 |
| CCOc1ccc(C2(C(=O)OC)CC2(Cl)Cl)cc1 (stereo not drawn) | 4.1 |
| CCOc1ccc(OCc2ccccc2CCCN2CCC(O)CC2)cc1 | 3.42 |
| NS(=O)(=O)c1cc(S(=O)(=O)c2ccc(CN3CCOCC3)cc2)cs1 | 0.98 |
| O=Cn1c2c(c3ccccc31)CCNC2 | 0.26 |
| O=[N+]([O-])C=C1NCCN1Cc1cccnc1 | -1.02 |
| COc1cccc(OCc2ccccc2CCCN2CCC(O)CC2)c1 | 3.35 |
| COc1ccc2ccc(=O)oc2c1 | 1.74 |
| COC(=O)C(C#N)=NNc1ccc(S(=O)(=O)C(F)(F)F)cc1 | 4.22 |
| Cc1c(O)c(=O)ccn1-c1ccccc1 | 1.12 |
| O=[N+]([O-])C=C1SCCN1Cc1ccc(Cl)nc1 | 0.65 |
| COCCCNC(=O)C(F)(F)Cn1cnc([N+](=O)[O-])n1 | 0.01 |
| CCCSP(=O)(OCC)Oc1cnn(-c2ccc(Cl)cc2)c1 (stereo not drawn) | 3.77 |
| COCC(Cn1ccnc1[N+](=O)[O-])OC (stereo not drawn) | 0.06 |
| CCCCCc1cc(OCc2ccc(-c3ccccc3)cc2)c2c(c1)OC(C)(C)C1CC=C(C)CC21 (stereo not drawn) | 10.9 |
| CSc1nc(Nc2ccc(Cl)cc2)nc(C(Cl)(Cl)Cl)n1 | 5.71 |
| CCCNc1nc(C(Cl)(Cl)Cl)nc(C(Cl)(Cl)Cl)n1 | 4.09 |
| CC(C)CN1C(=O)C(=O)c2ccccc2C1=O | 2.08 |

| Compound | logP |
| --- | --- |
| O=C(Cn1cnnn1)N[C@@H]1C(=O)N2C(C(=O)O)=C(CSc3nncs3)CS[C@H]12 | -0.67 |
| c1ccc(SCc2ccc(CCCN3CCOCC3)cc2)cc1 | 3.62 |
| CCCCCOc1ccc2ccc(=O)oc2c1 | 3.92 |
| CCN1C(=O)C(=O)c2c(C#N)cccc2C1=O | 0.41 |
| CCC(C)NC(=O)C(Br)=Cc1ccccc1 (stereo not drawn) | 2.66 |
| CCC1(C(C)c2ccccc2)C(=O)NC(=O)N(C)C1=O (stereo not drawn) | 3.14 |
| COc1cc(Cc2cnc(N)nc2N)cc(Br)c1OC | 2.23 |
| CCC(=O)C(CS(=O)(=O)c1ccccc1)c1ccc(C)cc1 (stereo not drawn) | 2.7 |
| CC(C)(C)c1ccc2c(c1)OCCOCCOCCOCCO2 | 2.26 |
| O=C(O)CCCCCNCCc1ccccc1 | -1.3 |
| CCN1C(=O)C(=O)c2c(OC)cccc2C1=O | 0.9 |
| CCC(C)(C)c1ccc(C2CCCC(O)C2)c(O)c1 (stereo not drawn) | 4.32 |
| Cc1ccc(Cl)cc1O | 2.63 |
| COCCCNC(=S)Cn1cnc([N+](=O)[O-])n1 | 0.63 |
| CC(=O)NC(CC(C)C)C(=O)NC(CC(=O)O)C(=O)NC(CC(C)C)C(N)=O (stereo not drawn) (Ac-Leu-Asp-Leu-NH2; configuration not given here) | 0.16 |
| C#CC1(OC(=O)C2=CN(C)C=CC2)CCC2C3CCC4=CC(=O)CCC4(C)C3CCC21C (stereo not drawn) | 4.49 |
| CC(C)(C)NC(=O)C1CN(C(=O)OCc2ccccc2)CCN1CC(O)CC(Cc1ccccc1)C(=O)NC1c2ccccc2CC1O (stereo not drawn) | 4.67 |
| C(=C\c1ccccc1)/CN1CCN(C(c2ccccc2)c2ccccc2)CC1 | 5.77 |
| CSC(=O)c1c(C(F)F)nc(C(F)(F)F)c(C(=O)SC)c1CC(C)C | 4.75 |
| COC(O)Cn1c([N+](=O)[O-])nc(Br)c1Br (stereo not drawn) | 1.02 |
| Cc1ccc(C2(Cn3cncn3)OCCO2)cc1 | 1.55 |
